# Measured values: patent publication US20260234208A1, “METHOD FOR PRODUCING A KERATIN POWDER FROM FEATHERS OF ANIMAL ORIGIN, COLLOIDAL SOLUTION AND KERATIN POWDER FOR TOPICAL APPLICATION CONTAINING KERATIN PARTICLES, AND USE OF THE COLLOIDAL SOLUTION AND THE KERATIN POWDER” (RIGI THERAPEUTICS AG, priority 2023, published 2026)
# Experiment: Water release in climate chamber
# Type: physicochemical
# Conditions: room temperature, humidity 50%
# Method: When urea was added, up to a ratio of 5% keratin to 95% urea, the maximum was reached increasingly later, in the maximum case only after 15 days. In this case, the water absorption capacity was 197%. (FIG. 13). The water release was determined at room temperature and a humidity of 50%. […] For the mixtures of keratin and urea in the ratios 25:75 and 10:[…], a water content of 25% was still observed even after 4 days (FIG. 14).
smiles,measurement,value
NC(N)=O [urea],Time to complete water release,4 days
same,Water release within the first 24 hours,around 170%
